Measurements: ChEMBL document CHEMBL3272353, “4-Substituted semicarbazones of mono- and dichlorobenzaldehydes as antihypertensive agents” (J Med Chem, 1977)
The source made the active and inactive calls. The calls are words filed in the database; no cut-off is given here.

Columns and labels:
Rattus norvegicus [1] = assay: Antihypertensive activity in spontaneously hypertensive rat assessed as reduction in mean arterial blood pressure at 100 mg/kg, po administered as two dose at 24 hrs interval measured 4 hrs post second dose relative to control; assay type: functional, Artery; set-up: scale not given: the % may be the effect or the level left
Canis familiaris [2] = assay: Antihypertensive activity in normotensive dog assessed as reduction in mean arterial blood pressure at 5 to 10 mg/kg, po administered in gelatin capsules; assay type: functional, organism-based; conditions: Canis lupus familiaris, Artery
Canis familiaris [3] = assay: Toxicity in dog assessed ataxia at 10 mg/kg, po administered in gelatin capsules; assay type: organism-based, Canis lupus familiaris; set-up: dose 10 mg/kg, route oral; conditions: in vivo
Rattus norvegicus [4] = assay: Antihypertensive activity in spontaneously hypertensive rat assessed as reduction in mean arterial blood pressure at 10 mg/kg, po administered as two dose at 24 hrs interval measured 4 hrs post second dose relative to control; assay type: functional, Artery; set-up: scale not given: the % may be the effect or the level left
Rattus norvegicus [5] = assay: Antihypertensive activity in spontaneously hypertensive rat assessed as reduction in mean arterial blood pressure at 5 mg/kg, po administered as two dose at 24 hrs interval measured 4 hrs post second dose relative to control; assay type: functional, Artery; set-up: scale not given: the % may be the effect or the level left
Rattus norvegicus [6] = assay: Toxicity in spontaneously hypertensive rat assessed as adverse effect at 5 to 10 mg/kg, po administered as two dose at 24 hrs interval; assay type: organism-based; set-up: dose 5-10 mg/kg, route oral; conditions: in vivo
Rattus norvegicus [7] = assay: Toxicity in spontaneously hypertensive rat assessed as general depression of cardiovascular function at 100 mg/kg, po administered as two dose at 24 hrs interval; assay type: organism-based, Heart; set-up: dose 100 mg/kg, route oral; conditions: in vivo
Rattus norvegicus [8] = assay: Antihypertensive activity in spontaneously hypertensive rat assessed as reduction in mean arterial blood pressure at 25 mg/kg, po administered as two dose at 24 hrs interval measured 4 hrs post second dose relative to control; assay type: functional, Artery; set-up: scale not given: the % may be the effect or the level left

O=C(N/N=C/c1c(Cl)cccc1Cl)N1CCOCC1
Activity (Rattus norvegicus [1]): 13%

CNC(=O)N/N=C/c1c(Cl)cccc1Cl
Activity (Rattus norvegicus [1]): 32%

CN(C)C(=O)N/N=C/c1c(Cl)cccc1Cl
Activity (Canis familiaris [2]): inactive | Activity (Canis familiaris [3]): Toxic | Activity (Rattus norvegicus [4]): 46% | Activity (Rattus norvegicus [5]): 31% | Activity (Rattus norvegicus [6]): Non-toxic | Activity (Rattus norvegicus [7]): Toxic

N=C(N)N/N=C/c1c(Cl)cccc1Cl [GUANABENZ]
Activity (Rattus norvegicus [8]): 26%

CN(C)C(=O)N/N=C/c1ccc(Cl)cc1
Activity (Rattus norvegicus [1]): 16%
